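Each compound was tested at five concentrations against cells in 96-well plates for 48 hours. TGI is the concentration that stops growth completely.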
Tests used:
Assay in all cases: NCI tumour cell line growth inhibition, 48 h
NCI-H23 lung = tested on: NCI-H23 lung
SK-OV-3 ovarian = tested on: SK-OV-3 ovarian
HOP-92 NSCLC = tested on: HOP-92 NSCLC
NCI/ADR-RES ovarian = tested on: NCI/ADR-RES ovarian
HCT-116 colon = tested on: HCT-116 colon
SR leukemia = tested on: SR leukemia
SW-620 colon = tested on: SW-620 colon
A498 renal = tested on: A498 renal
HS 578T breast = tested on: HS 578T breast
HOP-62 NSCLC = tested on: HOP-62 NSCLC
RPMI-8226 leukemia = tested on: RPMI-8226 leukemia
UACC-62 melanoma = tested on: UACC-62 melanoma
IGROV1 ovarian = tested on: IGROV1 ovarian
SNB-19 CNS = tested on: SNB-19 CNS
OVCAR-8 ovarian = tested on: OVCAR-8 ovarian
CCRF-CEM leukemia = tested on: CCRF-CEM leukemia
OVCAR-4 ovarian = tested on: OVCAR-4 ovarian
U251 CNS = tested on: U251 CNS
MDA-N = tested on: MDA-N
UACC-257 melanoma = tested on: UACC-257 melanoma
RXF 393 renal = tested on: RXF 393 renal
K-562 leukemia = tested on: K-562 leukemia
LOX IMVI melanoma = tested on: LOX IMVI melanoma
A549 NSCLC = tested on: A549 NSCLC
SK-MEL-2 melanoma = tested on: SK-MEL-2 melanoma
M14 melanoma = tested on: M14 melanoma
BT-549 breast = tested on: BT-549 breast
HCT-15 colon = tested on: HCT-15 colon
MDA-MB-435 = tested on: MDA-MB-435
MOLT-4 leukemia = tested on: MOLT-4 leukemia
COLO 205 colon = tested on: COLO 205 colon
NCI-H522 lung = tested on: NCI-H522 lung
MDA-MB-231 breast = tested on: MDA-MB-231 breast
SF-539 CNS = tested on: SF-539 CNS
TK-10 renal = tested on: TK-10 renal
ACHN renal = tested on: ACHN renal
HL-60(TB) leukemia = tested on: HL-60(TB) leukemia
CAKI-1 renal = tested on: CAKI-1 renal
SF-268 CNS = tested on: SF-268 CNS
UO-31 renal = tested on: UO-31 renal
NCI-H460 lung = tested on: NCI-H460 lung
PC-3 prostate = tested on: PC-3 prostate
SK-MEL-5 melanoma = tested on: SK-MEL-5 melanoma
SN12C renal = tested on: SN12C renal
MCF7 breast = tested on: MCF7 breast
EKVX NSCLC = tested on: EKVX NSCLC
786-0 renal = tested on: 786-0 renal
OVCAR-3 ovarian = tested on: OVCAR-3 ovarian
DU-145 prostate = tested on: DU-145 prostate
SF-295 CNS = tested on: SF-295 CNS
T-47D breast = tested on: T-47D breast
SK-MEL-28 melanoma = tested on: SK-MEL-28 melanoma
MALME-3M melanoma = tested on: MALME-3M melanoma
SNB-75 CNS = tested on: SNB-75 CNS
HT29 colon = tested on: HT29 colon
OVCAR-5 ovarian = tested on: OVCAR-5 ovarian
KM12 colon = tested on: KM12 colon
NCI-H226 lung = tested on: NCI-H226 lung
HCC-2998 colon = tested on: HCC-2998 colon

Measured: TGI

COc1cc(O)c(C(=O)/C=C/c2ccc(O)cc2)cc1Oc1ccc(/C=C/C(=O)c2ccc(O)cc2O)cc1
16.2 µM: SF-539 CNS
17.5 µM: RXF 393 renal
16.1 µM: SR leukemia
25.6 µM: TK-10 renal
26.7 µM: NCI/ADR-RES ovarian
17.4 µM: M14 melanoma
20.5 µM: SF-268 CNS
15.7 µM: ACHN renal
30.4 µM: NCI-H460 lung
14.1 µM: A498 renal
18.7 µM: HOP-62 NSCLC
18.3 µM: LOX IMVI melanoma
26.4 µM: OVCAR-5 ovarian
23.2 µM: UACC-257 melanoma
14.3 µM: SK-MEL-5 melanoma
22.8 µM: K-562 leukemia
15.5 µM: KM12 colon
17.2 µM: U251 CNS
38.9 µM: CAKI-1 renal
17 µM: OVCAR-3 ovarian
36.7 µM: MDA-MB-231 breast
29.4 µM: CCRF-CEM leukemia
14.7 µM: HCT-116 colon
33.2 µM: NCI-H23 lung
19.4 µM: SN12C renal
16.5 µM: 786-0 renal
15.4 µM: COLO 205 colon
16 µM: OVCAR-4 ovarian | NCI-H522 lung
17.6 µM: RPMI-8226 leukemia | UACC-62 melanoma | MALME-3M melanoma
14.2 µM: HT29 colon
34 µM: HL-60(TB) leukemia
24.7 µM: OVCAR-8 ovarian
22.2 µM: HOP-92 NSCLC
27.7 µM: EKVX NSCLC
22.6 µM: BT-549 breast
15 µM: IGROV1 ovarian
22.9 µM: MCF7 breast
38.5 µM: SW-620 colon
20.1 µM: SNB-75 CNS
21.9 µM: SK-MEL-2 melanoma
> 50 µM: HS 578T breast | A549 NSCLC | T-47D breast
43.1 µM: SNB-19 CNS
38.8 µM: MOLT-4 leukemia
25.7 µM: MDA-MB-435
18.2 µM: UO-31 renal | SF-295 CNS
23.6 µM: DU-145 prostate
15.2 µM: SK-MEL-28 melanoma
22.1 µM: PC-3 prostate
15.9 µM: SK-OV-3 ovarian
31 µM: MDA-N
21 µM: HCT-15 colon

COC(=O)c1c(C#N)[nH]c(-c2ccsc2)c1C(=O)OC
not listed: SNB-19 CNS | OVCAR-4 ovarian | HCT-15 colon | SF-539 CNS | HL-60(TB) leukemia | NCI-H460 lung | HCC-2998 colon
> 100 µM: all other assays above

CC1=NC(=Cc2cc(Br)cc(Br)c2)C(=O)N1n1c(-c2ccccc2)nc2ccccc2c1=O
not listed: A498 renal
> 100 µM: all other assays above

— PubChem BioAssay (NCI)
